Assay results from ChEMBL document CHEMBL5154819 (Eur J Med Chem, 2022).

Assays:
[1] = Toxicity in male Sprague-Dawley rat assessed as decrease in hemoglobin level at 10 mg/kg , iv administered every day for 4 weeks; type: organism-based; design: scale not given: the % may be the effect or the level left; conditions: in vivo, 672 h
[2] = Drug metabolism in Sprague-Dawley rat plasma assessed as cis-(R)-2-(4-(((1R,2R)-2-Hydroxycyclopentyl)methyl)phenyl)propanoic acid metabolite formation at 3 mg/kg, iv measured after 2 hrs by UHPLC-MS/MS analysis; type: ADME, organism-based; conditions: in vivo
[3] = Plasma protein binding in Sprague-Dawley rat at 600 to 15000 ng/ml measured after 6 hrs by LC-MS/MS analysis; type: ADME, cell-free; conditions: dose 600-15000 ng/ml, read-out: PPB
[4] = Plasma protein binding in cynomolgus monkey at 600 to 15000 ng/ml measured after 6 hrs by LC-MS/MS analysis; type: ADME, cell-free, Macaca fascicularis; conditions: dose 600-15000 ng/ml, read-out: PPB
[5] = Toxicity in Sprague-Dawley rat assessed as change in RBC level at 10 mg/kg , iv administered every day for 4 weeks and measured after 8 weeks; type: organism-based, Erythrocyte; conditions: in vivo, 1344 h
[6] = Plasma protein binding in human at 600 to 15000 ng/ml measured after 1 to 8 hrs by LC-MS/MS analysis; type: ADME, cell-free; conditions: dose lower 600 ng/ml, time lower 1 hrs, dose upper 15000 ng/ml, time upper 8 hrs, read-out: PPB
[7] = system: Mus musculus; assay: Antinociceptive activity in acetic acid induced ICR mouse assessed as inhibition effect at 1 mg/kg, iv administered for 15 mins followed by acetic acid injection and measured within 15 mins; type: functional; conditions: 0.5 h, time 30 min
[8] = system: Mus musculus; assay: Analgesic activity in acetic acid induced ICR mouse assessed as average writhing times at 0.13 mg/kg, iv administered for 15 mins followed by acetic acid injection and measured within 15 mins (reference value: 21.1 +/- 16.3); type: functional; conditions: time 30 min, 0.5 h
[9] = Toxicity in Sprague-Dawley rat assessed as effect on reticulocytes at 10 mg/kg , iv administered every day for 4 weeks and measured after 8 weeks; type: organism-based; conditions: in vivo, 1344 h
[10] = Drug metabolism in Sprague-Dawley rat plasma assessed as trans-(S)-2-(4-(((1S,2R)-2-Hydroxycyclopentyl)methyl)phenyl)propanoic acid metabolite formation at 3 mg/kg, iv measured after 2 hrs by UHPLC-MS/MS analysis; type: ADME, organism-based; conditions: in vivo
[11] = Toxicity in Sprague-Dawley rat assessed as change in mean corpuscular hemoglobin concentration at 10 mg/kg , iv administered every day for 4 weeks; type: organism-based; conditions: in vivo, 672 h
[12] = Drug metabolism in Beagle dog plasma assessed as cis-(R)-2-(4-(((1R,2R)-2-Hydroxycyclopentyl)methyl)phenyl)propanoic acid metabolite formation at 3 mg/kg, iv measured after 2 hrs by UHPLC-MS/MS analysis; type: ADME, organism-based, Canis lupus familiaris; conditions: in vivo
[13] = Drug metabolism in Sprague-Dawley rat plasma assessed as trans-(R)-2-(4-(((1S,2R)-2-Hydroxycyclopentyl)methyl)phenyl)propanoic acid metabolite formation at 3 mg/kg, iv measured after 2 hrs by UHPLC-MS/MS analysis; type: ADME, organism-based; conditions: in vivo
[14] = system: Mus musculus; assay: Analgesic activity in acetic acid induced ICR mouse assessed as average writhing times at 1 mg/kg, iv administered for 15 mins followed by acetic acid injection and measured within 15 mins (reference value: 21.1 +/- 16.3); type: functional; conditions: time 30 min, 0.5 h
[15] = system: Mus musculus; assay: Antinociceptive activity in acetic acid induced ICR mouse assessed as inhibition effect at 0.25 mg/kg, iv administered for 15 mins followed by acetic acid injection and measured within 15 mins; type: functional; conditions: 0.5 h, time 30 min
[16] = Drug metabolism in Beagle dog plasma assessed as trans-(R)-2-(4-(((1S,2R)-2-Hydroxycyclopentyl)methyl)phenyl)propanoic acid metabolite formation at 3 mg/kg, iv measured after 2 hrs by UHPLC-MS/MS analysis; type: ADME, organism-based, Canis lupus familiaris; conditions: in vivo
[17] = Drug metabolism in Beagle dog plasma assessed as cis-(R)-2-(4-(((1S,2S)-2-hydroxycyclopentyl)methyl)phenyl)propanoic acid metabolite formation at 3 mg/kg, iv measured after 2 hrs by UHPLC-MS/MS analysis; type: ADME, organism-based, Canis lupus familiaris; conditions: in vivo
[18] = species: Rattus norvegicus; assay: Antiinflammatory activity in carrageenan-induced Sprague-Dawley rat assessed as paw withdrawal threshold measured after 2.5 hrs by paw pressure test; type: functional
[19] = Toxicity in Beagle dog assessed as change in hemoglobin level at 10 mg/kg , iv administered every day for 4 weeks; type: organism-based, Canis lupus familiaris; conditions: in vivo, 672 h
[20] = Drug metabolism in Sprague-Dawley rat plasma assessed as cis-(R)-2-(4-(((1S,2S)-2-hydroxycyclopentyl)methyl)phenyl)propanoic acid metabolite formation at 3 mg/kg, iv measured after 2 hrs by UHPLC-MS/MS analysis; type: ADME, organism-based; conditions: in vivo
[21] = Toxicity in Sprague-Dawley rat assessed as effect on reticulocytes at 10 mg/kg , iv administered every day for 4 weeks; type: organism-based; conditions: in vivo, 672 h
[22] = system: Mus musculus; assay: Analgesic activity in iv dosed ICR mouse assessed as reduction in acetic acid induced writhing administered for 15 mins followed by acetic acid injection and measured within 15 mins; type: functional; conditions: 0.5 h, time 30 min
[23] = Toxicity in female Sprague-Dawley rat assessed as decrease in hemoglobin level at 10 mg/kg , iv administered every day for 4 weeks; type: organism-based; design: scale not given: the % may be the effect or the level left; conditions: in vivo, 672 h
[24] = Toxicity in Beagle dog assessed as change in RBC level at 10 mg/kg , iv administered every day for 4 weeks; type: organism-based, Canis lupus familiaris, Erythrocyte; conditions: in vivo, 672 h
[25] = system: Mus musculus; assay: Antinociceptive activity in acetic acid induced ICR mouse assessed as inhibition effect at 0.50 mg/kg, iv administered for 15 mins followed by acetic acid injection and measured within 15 mins; type: functional; conditions: 0.5 h, time 30 min
[26] = Toxicity in Beagle dog assessed as change in red cell distribution width at 10 mg/kg , iv administered every day for 4 weeks; type: organism-based, Canis lupus familiaris; conditions: in vivo, 672 h
[27] = system: Mus musculus; assay: Analgesic activity in acetic acid induced ICR mouse assessed as average writhing times at 0.25 mg/kg, iv administered for 15 mins followed by acetic acid injection and measured within 15 mins (reference value: 21.1 +/- 16.3); type: functional; conditions: time 30 min, 0.5 h
[28] = species: Rattus norvegicus; assay: Anti-hyperalgesic activity in carrageenan-induced mechanical hyperalgesia Sprague-Dawley rat model assessed as paw withdrawal threshold measured after 2.5 hrs by paw pressure test; type: functional
[29] = system: Mus musculus; assay: Analgesic activity in acetic acid induced ICR mouse assessed as average writhing times at 0.50 mg/kg, iv administered for 15 mins followed by acetic acid injection and measured within 15 mins (reference value: 21.1 +/- 16.3); type: functional; conditions: dose 0.5 mg/kg, time 30 min
[30] = Plasma protein binding in CD-1 mouse at 600 to 15000 ng/ml measured after 6 hrs by LC-MS/MS analysis; type: ADME, cell-free; conditions: dose 600-15000 ng/ml, read-out: PPB
[31] = Toxicity in NZW rabbit assessed as necrosis in endothelial cells at 10 mg/kg/day, iv administered once daily for 7 days and measured after 3 to 14 days by H and E staining based optical microscopy analysis; type: organism-based, Oryctolagus cuniculus; conditions: in vivo, time 3-14 day
[32] = Toxicity in Beagle dog assessed as effect on reticulocytes at 10 mg/kg, iv administered every day for 4 weeks; type: organism-based, Canis lupus familiaris; conditions: in vivo, 672 h
[33] = Toxicity in Sprague-Dawley rat assessed as change in hemoglobin level at 10 mg/kg , iv administered every day for 4 weeks and measured after 8 weeks; type: organism-based; conditions: in vivo, 1344 h
[34] = Toxicity in male Sprague-Dawley rat assessed as decrease in RBC level at 10 mg/kg , iv administered every day for 4 weeks; type: organism-based, Erythrocyte; design: scale not given: the % may be the effect or the level left; conditions: in vivo, 672 h
[35] = Toxicity in Sprague-Dawley rat assessed as red cell distribution width at 10 mg/kg , iv administered every day for 4 weeks and measured after 8 weeks; type: organism-based; conditions: in vivo, 1344 h
[36] = Toxicity in NZW rabbit assessed as infiltration of inflammatory cells at 10 mg/kg/day, iv administered once daily for 7 days and measured after 3 to 14 days by H and E staining based optical microscopy analysis; type: organism-based, Oryctolagus cuniculus; conditions: in vivo, time 3-14 day
[37] = Toxicity in female Sprague-Dawley rat assessed as decrease in RBC level at 10 mg/kg , iv administered every day for 4 weeks; type: organism-based, Erythrocyte; design: scale not given: the % may be the effect or the level left; conditions: in vivo, 672 h
[38] = system: Mus musculus; assay: Antinociceptive activity in acetic acid induced ICR mouse assessed as inhibition effect at 0.13 mg/kg, iv administered for 15 mins followed by acetic acid injection and measured within 15 mins; type: functional; conditions: 0.5 h, time 30 min
[39] = Toxicity in Sprague-Dawley rat assessed as change in red cell distribution width at 10 mg/kg , iv administered every day for 4 weeks; type: organism-based; conditions: in vivo, 672 h
[40] = Plasma protein binding in Beagle dog at 600 to 15000 ng/ml measured after 6 hrs by LC-MS/MS analysis; type: ADME, cell-free, Canis lupus familiaris; conditions: dose 600-15000 ng/ml, read-out: PPB
[41] = Toxicity in Sprague-Dawley rat assessed as change in mean corpuscular hemoglobin concentration at 10 mg/kg , iv administered every day for 4 weeks and measured after 8 weeks; type: organism-based; conditions: in vivo, 1344 h
[42] = Solubility of the compound in pre-warmed distilled water at 500 mg measured after 30 mins by HPLC analysis; type: physicochemical
[43] = Toxicity in Beagle dog assessed as change in mean corpuscular hemoglobin concentration at 10 mg/kg , iv administered every day for 4 weeks; type: organism-based, Canis lupus familiaris; conditions: in vivo, 672 h

## C[C@H](C(=O)O)c1ccc(C[C@H]2CCC[C@@H]2O)cc1.NC(CO)(CO)CO
[1]
  Activity: < 10%
[2]
  Drug metabolism: Metabolite_Notdetected
[3]
  fraction unbound at 6 h: < 0.3
[4]
  fraction unbound at 6 h: < 0.3
[5]
  Activity: Non-Toxic
[6]
  fraction unbound: < 0.05
[7]
  inhibition in vivo at 1 mg/kg: 68.2%
[8]
  Activity: 19
[9]
  Activity: Non-Toxic
[10]
  Drug metabolism: Metabolite_Notdetected
[11]
  Activity: Non-Toxic
[12]
  Drug metabolism: Metabolite_Notdetected
[13]
  Drug metabolism: Metabolite_Notdetected
[14]
  Activity: 6.7
[15]
  inhibition in vivo at 0.25 mg/kg: 39.3%
[16]
  Drug metabolism: Metabolite_Notdetected
[17]
  Drug metabolism: Metabolite_Notdetected
[18]
  ED50: 8.01 mg/kg
[19]
  Activity: Non-Toxic
[20]
  Drug metabolism: Metabolite_Notdetected
[21]
  Activity: Non-Toxic
[22]
  ED50: 0.43 mg/kg
[23]
  Activity: < 10%
[24]
  Activity: Non-Toxic
[25]
  inhibition in vivo at 0.5 mg/kg: 63.5%
[26]
  Activity: Non-Toxic
[27]
  Activity: 12.8
[28]
  ED50: 1.28 mg/kg
[29]
  Activity: 7.7
[30]
  fraction unbound at 6 h: < 0.3
[31]
  Activity: Non-Toxic
[32]
  Activity: Non-Toxic
[33]
  Activity: Non-Toxic
[34]
  Activity: < 10%
[35]
  Activity: Non-Toxic
[36]
  Activity: Non-Toxic
[37]
  Activity: < 10%
[38]
  inhibition in vivo at 0.13 mg/kg: 10%
[39]
  Activity: Non-Toxic
[40]
  fraction unbound at 6 h: < 0.3
[41]
  Activity: Non-Toxic
[42]
  solubility at 0.5 h: 176 mg/mL
[43]
  Activity: Non-Toxic
